What was measured:
[1] = system: IL-2-FL/Gaussia Luciferase; experiment: Dox Induced IL2-FL-Gluc Assay; type: cell-based; details: for IC50: 24 hr Dox induction, 293FRT/TO cells, mean, read-out: 24 hr Dox Inducible IL2FLGluc 293FRT/TO: Mean IC50; for 24 hr Dox Inducible IL2FLGluc 293FRT/TO: IL2/PD1: ratio of IL2FLGluc IC50 to PD1ssGluc IC50, '<=>' given where both are I.A.
In short: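 Stable Flp-In 293 T-REx line, Tet-regulated IL-2 (aa 1-153)–Gaussia luciferase fusion; hygromycin/blasticidin selected. Plated day -1; compound + doxycycline added next day; 37° C, 5% CO2.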

[2] = system: PD1-ss+10aa/Gaussia Luciferase; experiment: Dox-Induced PD1-ss-Gluc Assay; type: cell-based; details: 24 hr Dox induction; 293FRT/TO cells; mean; read-out: 24 hr Dox Inducible PD1ssGluc 293FRT/TO: Mean IC50
In short: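 The cell line was made by transfecting Flp-In 293 T-REx cells with a PD1 signal sequence+10aa–Gaussia luciferase fusion under T-REx control and selecting with hygromycin and blasticidin. Cells were seeded, and next day compound plus doxycycline was added at 37 °C, 5% CO2.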

[3] = system: multiple myeloma cell line U266B1; experiment: U266 Cell Viability Assay; type: cell-based, human; details: Homo sapiens, U-266, 48 h, U266B1 cells, Celltiter-Glo
In short: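 Luminescent ATP read-out (CellTiter-Glo) after 48 h compound exposure at 37° C., 5% CO2; cells maintained in RPMI 1640/10% FBS/2 mM glutamine/pen-strep, compounds diluted in DMSO/media.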

[4] = system: HER3-ss+4aa/Gaussia Luciferase; experiment: Dox-Induced Her3-ss-Gluc Assay; type: cell-based; details: 24 hr Dox induction; 293FRT/TO cells; mean; read-out: 24 hr Dox Inducible Her3(ss + 4)Gluc 293FRT/TO: Mean IC50
In short: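 Flp-In 293 T-REx cells, stable HER3-ss+4aa/Gaussia luciferase insert, hygromycin/blasticidin selected; plated day before; compound in DMSO/media + doxycycline; 37° C., 5% CO2.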

[5] = Liver Microsome Stability Assay (monkey); details: monkey liver microsomes, with NADPH, 1.0 uM compound
Protocol: (§1) Stability of a compound was assessed in the presence of liver microsomes from various sources—mouse, rat, monkey and human liver microsomes. 1.0 uM compound, 0.4% DMSO in 0.1 M Potassium Phosphate with 1.0 mg/mL liver microsomes, were incubated at 37° C. with or without 1 mM NADPH. The samples were quenched at 0, and 30 minutes.

[6] = system: multiple myeloma cell line NCI-H929; experiment: H929 Cell Viability Assay; type: cell-based, human; details: Homo sapiens, NCI-H929, 48 h, NCI-H929 cells, Celltiter-Glo
In short: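 Cells in RPMI 1640/10% FBS; compound dilutions in DMSO/media; 48 h, 37° C, 5% CO2; CellTiter-Glo luciferase readout for viability.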

[7] = Liver Microsome Stability Assay (human); details: human liver microsomes, with NADPH, 1.0 uM compound
Protocol: as §1

[8] = Liver Microsome Stability Assay (mouse); details: mouse liver microsomes, with NADPH, 1.0 uM compound
Protocol: as §1

[9] = Liver Microsome Stability Assay (rat); details: rat liver microsomes, with NADPH, 1.0 uM compound
Protocol: as §1

[10] = system: TNFα-FL/Gaussia Luciferase; experiment: Dox Induced TNFα-FL-Gluc Assay; type: cell-based; details: for IC50: 24 hr Dox induction, 293FRT/TO cells, mean, read-out: 24 hr Dox Inducible TNFaFLGluc 293FRT/TO: Mean IC50; for 24 hr Dox Inducible TNFaFLGluc 293FRT/TO: TNF/PD1: ratio of TNFaFLGluc IC50 to PD1ssGluc IC50, '<=>' given where both are I.A.
In short: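 Cell line: stable Flp-In 293 T-REx, TNFα-FL(1-233)-Gaussia luciferase fusion, T-REx-inducible. Plated day -1; compounds in DMSO/media + doxycycline, 37 °C, 5% CO2. Undefined stereocentres = mixture tested.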

SMILES	IC50 [1] [µM]	24 hr Dox Inducible IL2FLGluc 293FRT/TO: IL2/PD1 [1]	IC50 [2] [µM]	EC50 [3] [µM]	IC50 [4] [µM]	Liver Microsome Stability (Multiple Species): Monkey - % Remaining after 30 min w/NADPH [5] [%]	EC50 [6] [µM]	Liver Microsome Stability (Multiple Species): Human - % Remaining after 30 min w/NADPH [7] [%]	Liver Microsome Stability (Multiple Species): Mouse - % Remaining after 30 min w/NADPH [8] [%]	Liver Microsome Stability (Multiple Species): Rat - % Remaining after 30 min w/NADPH [9] [%]	IC50 [10] [µM]	24 hr Dox Inducible TNFaFLGluc 293FRT/TO: TNF/PD1 [10]
O=C(Nc1nc([C@H]2CCCN2c2ccccc2)cs1)c1cccn1CC1CC(F)(F)C1 [Compound C94, (R)-1-((3,3-difluorocyclobutyl)methyl)-N-(4-(1-phenylpyrrolidin-2-yl)thiazol-2-yl)-1H-pyrrole-2-carboxamide]	3.66	1	3.59	> 25	2.4	10.6	> 25	63.4	52.1	20.7	> 25	>6.97
CCc1ccc(N2CCC[C@@H]2c2csc(NC(=O)c3cccn3Cc3ccncc3)n2)cn1 [Compound C95, (R)-N-(4-(1-(6-ethylpyridin-3-yl)pyrrolidin-2-yl)thiazol-2-yl)-1-(pyridin-4-ylmethyl)-1H-pyrrole-2-carboxamide]	0.0155	3.1	0.00505	19.6	0.0035	0.11	0.127	0.44	0.28	1.89	0.104	20.5
CCc1ccc(N2CCC[C@@H]2c2csc(NC(=O)c3cccn3CC3CCOCC3)n2)cn1 [Compound C96, (R)-N-(4-(1-(6-ethylpyridin-3-yl)pyrrolidin-2-yl)thiazol-2-yl)-1-((tetrahydro-2H-pyran-4-yl)methyl)-1H-pyrrole-2-carboxamide]	0.28	4.4	0.0637	> 25	0.0596	0.13	2.96	0.07	6.58	0.76	0.943	14.8
O=C(Nc1nc([C@H]2CCCN2c2ccccc2)cs1)c1cccn1CCC1COC1 [Compound C99, (R)-1-(2-(oxetan-3-yl)ethyl)-N-(4-(1-phenylpyrrolidin-2-yl)thiazol-2-yl)-1H-pyrrole-2-carboxamide]	5.38	3.1	1.72	> 25	2.83	0.26	21.9	26.1	19.1	4.12	16.8	9.72
N#CC[C@H](O)Cn1cccc1C(=O)Nc1nc([C@H]2CCCN2c2ccccc2)cs1 [Compound C100, 1-((S)-3-cyano-2-hydroxypropyl)-N-(4-((R)-1-phenylpyrrolidin-2-yl)thiazol-2-yl)-1H-pyrrole-2-carboxamide]	6.46	0.85	7.64	> 25	15.9	18.5	> 25	19.1	19.8	13.6	> 25	>3.27
